Results from ChEMBL document CHEMBL3638480, “Inhibitors” (2013).

Biological target: Glutaminyl-peptide cyclotransferase (Homo sapiens, UniProt Q16769)
Assay: Spectrophotometic Assay: Spectrophotometic Assay: This novel assay was used to determine the kinetic parameters for most of the QC substrates. QC activity was analyzed spectrophotometrically using a continuous method, that was derived by adapting a previous discontinuous assay (Bateman, R.C.J. 1989 J Neurosci Methods 30, 23-28).

Sequence of Glutaminyl-peptide cyclotransferase (Q16769 whole entry): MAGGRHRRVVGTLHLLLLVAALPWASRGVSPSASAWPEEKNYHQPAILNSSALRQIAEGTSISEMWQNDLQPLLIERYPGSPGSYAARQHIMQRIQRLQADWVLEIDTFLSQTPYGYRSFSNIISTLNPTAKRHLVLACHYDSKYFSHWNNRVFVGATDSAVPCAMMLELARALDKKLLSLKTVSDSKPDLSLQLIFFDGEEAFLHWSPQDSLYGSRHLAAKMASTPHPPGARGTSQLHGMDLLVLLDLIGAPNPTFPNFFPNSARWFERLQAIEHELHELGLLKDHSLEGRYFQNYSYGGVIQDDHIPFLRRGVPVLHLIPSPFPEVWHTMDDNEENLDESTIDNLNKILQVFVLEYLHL

Row | IC50 [µM] | SMILES
1 | < 10 | C[C@@H]1OC(=O)N(c2ccc3nc[nH]c3c2)[C@H]1c1ccccc1
2 | < 10 | CC(C)Oc1ccc(C[C@H]2COC(=O)N2c2ccc3[nH]cnc3c2)cc1
3 | < 10 | Cc1nc2ccc(N3C(=O)OC[C@@H]3c3ccccc3)cc2[nH]1
4 | < 10 | O=C1OC[C@H](c2ccc(-c3ccccc3)cc2)N1c1ccc2[nH]cnc2c1
5 | < 10 | O=C1OCC(c2ccc(N3CCCC3)cc2)N1c1ccc2[nH]cnc2c1 (stereo not drawn)
6 | < 10 | CC(c1ccccc1)C1COC(=O)N1c1ccc2[nH]cnc2c1 (stereo not drawn)
7 | < 10 | O=C1NCC(c2cccc(-c3ccccc3)c2)N1c1ccc2[nH]cnc2c1 (stereo not drawn)
8 | < 10 | O=C1OC[C@H](c2ccccc2)N1c1cc(F)c2[nH]cnc2c1
9 | < 10 | O=C1OC[C@H](c2cccc(N3CCN(c4ccccc4)CC3)c2)N1c1ccc2nc[nH]c2c1
10 | < 10 | COc1cc(F)c(C2COC(=O)N2c2ccc3[nH]cnc3c2)c(F)c1 (stereo not drawn)
11 | < 10 | O=C1NCC(c2ccccc2F)N1c1ccc2[nH]cnc2c1 (stereo not drawn)
12 | < 10 | O=C1OC[C@H](c2ccc(N3CCCCC3)cc2)N1c1ccc2[nH]cnc2c1
13 | < 10 | COC1CCC(c2ccc(C3COC(=O)N3c3ccc4[nH]cnc4c3)cc2)CC1 (stereo not drawn)
14 | < 10 | CN(C)CCOc1ccc([C@H]2COC(=O)N2c2ccc3[nH]cnc3c2)cc1
15 | < 10 | CC1(C)OC(=O)N(c2ccc3nc[nH]c3c2)[C@H]1c1ccccc1
16 | < 10 | O=C1OC[C@H](C2CCN(c3ccccc3)CC2)N1c1ccc2[nH]cnc2c1
17 | < 10 | O=C1OC[C@H](c2cccc(N3CCCCC3)c2)N1c1ccc2[nH]cnc2c1
18 | < 10 | O=C1OC[C@H](c2ccc3c(c2)OCCO3)N1c1ccc2nc[nH]c2c1
19 | < 10 | O=C1OCC(c2ccc(C3CCC(O)CC3)cc2)N1c1ccc2[nH]cnc2c1 (stereo not drawn)
20 | < 10 | O=C1OC[C@H](c2cccc(N3CCOCC3)c2)N1c1ccc2[nH]cnc2c1

Row | IC50 [µM] | SMILES
21 | < 10 | CN1CCC(c2ccc(C3COC(=O)N3c3ccc4[nH]cnc4c3)cc2)CC1 (stereo not drawn)
22 | < 10 | O=C1OCC(c2ccc(OC3CCCCC3)cc2)N1c1ccc2[nH]cnc2c1 (stereo not drawn)
23 | < 10 | O=C1OC[C@H](c2ccc(-c3cccc(Cl)c3)cc2)N1c1ccc2nc[nH]c2c1
24 | < 10 | O=C1NCC(c2ccc(Cl)cc2)N1c1ccc2[nH]cnc2c1 (stereo not drawn)
25 | < 10 | COCCN(CCOC)c1ccc([C@H]2COC(=O)N2c2ccc3[nH]cnc3c2)cc1
26 | < 10 | CCOc1ccc(C2CNC(=O)N2c2ccc3[nH]cnc3c2)cc1 (stereo not drawn)
27 | < 10 | O=C1OC[C@H](c2ccc(N(C3CC3)C3CC3)cc2)N1c1ccc2[nH]cnc2c1
28 | < 10 | COc1ccccc1C1CNC(=O)N1c1ccc2[nH]cnc2c1 (stereo not drawn)
29 | < 10 | CCN(CC)c1ccc([C@H]2COC(=O)N2c2ccc3[nH]cnc3c2)cc1
30 | < 10 | O=C1OC[C@H](c2cccc(F)c2)N1c1ccc2[nH]cnc2c1
31 | < 10 | O=C1OC[C@H](c2ccc3c(c2)OCO3)N1c1ccc2nc[nH]c2c1
32 | < 10 | COCCOc1ccc([C@H]2COC(=O)N2c2ccc3[nH]cnc3c2)cc1
33 | < 10 | O=C1OC[C@H](c2ccccc2)N1c1ccc2[nH]cnc2c1
34 | < 10 | O=C1NCC(c2ccc(-c3ccccc3)c(F)c2)N1c1ccc2[nH]cnc2c1 (stereo not drawn)
35 | < 10 | CN(C)CCCc1ccc([C@@H]2COC(=O)N2c2ccc3[nH]cnc3c2)cc1
36 | < 10 | O=C1CCC(c2ccc(C3COC(=O)N3c3ccc4[nH]cnc4c3)cc2)CC1 (stereo not drawn)
37 | < 10 | O=C1NCC(c2ccc(F)cc2)N1c1ccc2[nH]cnc2c1 (stereo not drawn)
38 | < 10 | CN1CCN(c2cccc([C@H]3COC(=O)N3c3ccc4nc[nH]c4c3)c2)CC1
39 | < 10 | O=C1OC[C@H](c2ccc(Cl)cc2)N1c1ccc2nc[nH]c2c1

Further lines, the compound ahead of its results:

Row | SMILES | IC50 [µM]
40 | O=C1NCC(c2ccc(N3CCN(c4ccccc4)CC3)cc2)N1c1ccc2nc[nH]c2c1 (stereo not drawn) | < 10
41 | O=C1OC[C@H](c2ccc(N3CCCCC3)cc2)N1c1ccn2ccnc2c1 | < 10
42 | CCCOc1ccc(C2CN(Cc3ccccc3)C(=O)N2c2ccc3[nH]cnc3c2)cc1 (stereo not drawn) | < 10
43 | O=C1NCC(c2c(Cl)cccc2Cl)N1c1ccc2nc[nH]c2c1 (stereo not drawn) | < 10
44 | O=C1NCC(c2ccc3c(c2)OC(F)(F)O3)N1c1ccc2[nH]cnc2c1 (stereo not drawn) | < 10
45 | O=C1NCC(c2c(F)cccc2F)N1c1ccc2[nH]cnc2c1 (stereo not drawn) | < 10
46 | COc1ccc([C@H]2[C@@H](C)NC(=O)N2c2ccc3nc[nH]c3c2)cc1 | < 10
47 | O=C1NCC(c2cccc(N3CCCCC3)c2)N1c1ccn2ccnc2c1 (stereo not drawn) | < 10
48 | O=C1NCC(c2cccc(Cl)c2)N1c1ccc2nc[nH]c2c1 (stereo not drawn) | < 10
49 | O=C1NCC(c2cc(C(F)(F)F)ccc2F)N1c1ccc2[nH]cnc2c1 (stereo not drawn) | < 10
50 | O=C1NCC(c2ccc(C(F)(F)F)cc2F)N1c1ccc2[nH]cnc2c1 (stereo not drawn) | < 10
51 | O=C1NCC(c2cccc(F)c2)N1c1ccc2nc[nH]c2c1 (stereo not drawn) | < 10
52 | O=C1NCC(c2cccc(Cl)c2Cl)N1c1ccc2nc[nH]c2c1 (stereo not drawn) | < 10
53 | CCN(CC)c1ccc([C@H]2CNC(=O)N2c2ccc3[nH]cnc3c2)cc1 | < 10
54 | COc1cc(F)c(C2CNC(=O)N2c2ccn3ccnc3c2)c(F)c1 (stereo not drawn) | < 10
55 | CCCOc1ccc(C2CNC(=O)N2c2ccc3[nH]cnc3c2)c(F)c1 (stereo not drawn) | < 10
56 | O=C1OC[C@H](c2ccc(C3CCCCC3)cc2)N1c1ccn2ccnc2c1 | < 10
57 | O=C1NCC(c2cc(F)cc(C(F)(F)F)c2)N1c1ccc2[nH]cnc2c1 (stereo not drawn) | < 10
58 | O=C1NCC(C2CCC(c3ccccc3)CC2)N1c1ccc2nc[nH]c2c1 (stereo not drawn) | < 10
59 | CN1CCN(c2ccc([C@H]3COC(=O)N3c3ccc4nc[nH]c4c3)cc2)CC1 | < 10
60 | O=C1OC[C@H](c2cc(F)cc(C(F)(F)F)c2)N1c1ccc2nc[nH]c2c1 | < 10
61 | CC(C)Oc1ccc(C2CNC(=O)N2c2ccc3nc[nH]c3c2)cc1 (stereo not drawn) | < 10
62 | CCCOc1ccc(C2CNC(=O)N2c2ccc3[nH]cnc3c2)cc1F (stereo not drawn) | < 10

Row | SMILES | IC50 [µM]
63 | O=C1CCC(c2ccc(C3CNC(=O)N3c3ccc4[nH]cnc4c3)cc2)CC1 (stereo not drawn) | < 10
64 | O=C1OC[C@H](c2ccc(N3CCN(c4ccccc4)CC3)cc2)N1c1ccn2ccnc2c1 | < 10
65 | O=C1NCC(c2ccc(-c3ccccc3)c(F)c2)N1c1ccn2ccnc2c1 (stereo not drawn) | < 10
66 | O=C1OCC(c2ccc(C3CCC(N4CCOCC4)CC3)cc2)N1c1ccc2[nH]cnc2c1 (stereo not drawn) | < 10
67 | O=C1NCC(c2ccc(C3CCOCC3)cc2)N1c1ccc2[nH]cnc2c1 (stereo not drawn) | < 10
68 | O=C1c2ccccc2[C@H](c2ccc(Cl)cc2)N1c1ccc2[nH]cnc2c1 | < 10
69 | O=C1NCC(c2ccc(-c3ccc(Cl)c(Cl)c3)cc2)N1c1ccc2nc[nH]c2c1 (stereo not drawn) | < 10
70 | CCCOc1ccc(C[C@H]2COC(=O)N2c2ccc3[nH]cnc3c2)cc1 | < 10
71 | O=C1NCC(c2ccccc2OCCN2CCOCC2)N1c1ccc2nc[nH]c2c1 (stereo not drawn) | < 10
72 | O=C1NCC(c2c(F)cccc2F)N1c1ccn2ccnc2c1 (stereo not drawn) | < 10
73 | CN1CCC(c2ccc([C@H]3CNC(=O)N3c3ccc4[nH]cnc4c3)cc2)CC1 | < 10
74 | CCCOc1ccc([C@H]2[C@H](c3ccccc3)OC(=O)N2c2ccc3[nH]cnc3c2)cc1 | < 10
75 | O=C1OC[C@H](CC2CCCCC2)N1c1ccc2[nH]cnc2c1 | < 10
76 | O=C1NCC(c2ccc(OCCN3CCOCC3)cc2)N1c1ccn2ccnc2c1 (stereo not drawn) | < 10
77 | COc1ccc(C2CN(N)C(=O)N2c2ccc3[nH]cnc3c2)cc1 (stereo not drawn) | < 10
78 | O=C1NC[C@H](c2ccc(C3CCC(F)(F)CC3)cc2)N1c1ccc2[nH]cnc2c1 | < 10
79 | O=C1NCC(c2ccccc2Cl)N1c1ccc2nc[nH]c2c1 (stereo not drawn) | < 10
80 | O=C1NCC(c2ccc(C(F)(F)F)c(F)c2)N1c1ccc2nc[nH]c2c1 (stereo not drawn) | < 10
81 | O=C1NCC(c2ccc(-c3cccc(Cl)c3)cc2)N1c1ccc2[nH]cnc2c1 (stereo not drawn) | < 10
82 | CN(C)CCOc1ccc([C@H]2CNC(=O)N2c2ccc3[nH]cnc3c2)cc1 | < 10
83 | CCCOc1ccc(C2CN(CCc3ccccc3)C(=O)N2c2ccc3[nH]cnc3c2)cc1 (stereo not drawn) | < 10
84 | COc1cc(C2CNC(=O)N2c2ccn3ccnc3c2)cc2c1OCO2 (stereo not drawn) | < 10
85 | COc1cc(F)c(C2CNC(=O)N2c2ccc3nc[nH]c3c2)c(F)c1 (stereo not drawn) | < 10

Row | SMILES | IC50 [µM]
86 | COc1ccc(C2CCC(=O)N2c2ccc3[nH]cnc3c2)cc1 (stereo not drawn) | < 10
87 | O=C1NCC(c2cccc(-c3cccc(Cl)c3)c2)N1c1ccc2[nH]cnc2c1 (stereo not drawn) | < 10
88 | O=C1NCC(c2ccc(Cl)c(Cl)c2)N1c1ccc2nc[nH]c2c1 (stereo not drawn) | < 10
89 | CCCOc1ccc(C2CCC(=O)N2c2ccc3[nH]cnc3c2)cc1 (stereo not drawn) | < 10
90 | O=C1NCC(c2ccc(N3CCCCC3)cc2)N1c1ccn2ccnc2c1 (stereo not drawn) | < 10
91 | O=C1NCC(c2ccc(C3CCCCC3)cc2)N1c1ccn2ccnc2c1 (stereo not drawn) | < 10
92 | CCCOc1ccc(C2CN(Cc3ccc4ccccc4c3)C(=O)N2c2ccc3[nH]cnc3c2)cc1 (stereo not drawn) | < 10
93 | O=C1c2ccccc2C(c2ccc(Cl)cc2)N1c1ccc2[nH]cnc2c1 (stereo not drawn) | < 10
94 | CCCCOc1ccc(C2CNC(=O)N2c2ccc3nc[nH]c3c2)cc1 (stereo not drawn) | < 10
95 | O=C1NCC(c2ccc(C3CCC(N4CCOCC4)CC3)cc2)N1c1ccc2[nH]cnc2c1 (stereo not drawn) | < 10
96 | COc1cc(C2CNC(=O)N2c2ccc3[nH]cnc3c2)ccc1F (stereo not drawn) | < 10
97 | O=C1NCC(c2ccc(OC3CCCCC3)cc2)N1c1ccc2[nH]cnc2c1 (stereo not drawn) | < 10
98 | O=C1NCC(c2ccc(OCCCN3CCOCC3)cc2)N1c1ccc2nc[nH]c2c1 (stereo not drawn) | < 10
99 | O=C1NCC(C2CCN(c3ccccc3)CC2)N1c1ccc2nc[nH]c2c1 (stereo not drawn) | < 10
100 | CCCOc1ccc(C2CN(CCCc3ccccc3)C(=O)N2c2ccc3[nH]cnc3c2)cc1 (stereo not drawn) | < 10
101 | O=C1OC[C@H](C2CCCCC2)N1c1ccc2[nH]cnc2c1 | < 10
102 | O=C1OC[C@H](c2ccc(N3CCOCC3)cc2)N1c1ccn2ccnc2c1 | < 10
103 | COc1ccc(C2CNC(=O)N2c2ccc3nc[nH]c3c2)cc1F (stereo not drawn) | < 10
104 | O=C1NCC(c2ccc(OCCN3CCOCC3)cc2)N1c1ccc2nc[nH]c2c1 (stereo not drawn) | < 10
105 | COc1cccc(C2CNC(=O)N2c2ccc3nc[nH]c3c2)c1 (stereo not drawn) | < 10
106 | O=C1NCC(c2ccc3c(c2)OCCO3)N1c1ccc2[nH]cnc2c1 (stereo not drawn) | < 10
107 | O=C1NCC(c2ccc(N3CCN(c4ccccc4)CC3)cc2)N1c1ccn2ccnc2c1 (stereo not drawn) | < 10
108 | COc1cc(C2CNC(=O)N2c2ccc3[nH]cnc3c2)cc2c1OCO2 (stereo not drawn) | < 10
